Assay results published in patent publication US11446270B2, “Leonurine crystal and use thereof in preparation of insulin sensitizer, hypoglycemic drug and lipid-lowering drug” (ZHUHAI HENGQIN NEW DISTRICT ZHONGZHU ZHENGTAI MEDICAL …, priority 2017, dated 2022).

Experiments:
ApoE knockout mice = assay: Serum lipids in hyperlipidemia ApoE knockout mice on high fat diet; type: in vivo; conditions: positive control 3 mg/kg/day intragastric, 4 weeks, vs model group
Description: Fifteen C57BL/6J mice (male, 6-8 weeks) and seventy-five ApoE knockout mice (male, 6-8 weeks) were used for experiments. C57BL/6J mice were fed with normal diet, and ApoE knockout mice were fed for 1 week with a diet of normal/high fat diet ratio of 1/1.
Mice were weighed before administered drugs every week, where the dosage of the drug for mice is calculate according to the weight; and housed under 24±1° C. room temperature and 55±5% air humidity condition, and allowed enough food and water ad libitum. After the drug administration continuously for 4 weeks, the mice were anesthetized with pentobarbital sodium according to body weight. Blood (0.5 ml per mouse) was drawn from the inner canthus vein for hematology analysis. Hematology analysis: blood samples were let for standing for 2 h and centrifuged (3000 rpm, 10 min, 4° C.) to obtain serum. The total cholesterol (TC), triacylglycerol (TG) and low-density cholesterol (LDL-C) levels in the serum samples were assessed using automatic biochemical analyzer. Statistical analysis: GraphPad Prism 5 software was used to analyze and draw figure. Results were expressed as the mean±standard (mean±SD), and statistical analysis was performed by one-way analysis of variance (ANOVA) or student's t test. A difference with P<0.05 was considered statistically significant. Statistical significance was set at *P<0.05, **P<0.01, ***P<0.001 versus the model group.

New Zealand white rabbit = assay: Serum lipids in hyperlipidemia New Zealand rabbits on high fat diet; type: in vivo; conditions: positive control 2.5 mg/kg/day intragastric, 12 weeks, vs model group
Description: Forty-eight male New Zealand rabbits weighed 1.8 to 2.2 kg were housed under 12 h dark-12 h light cycles and allowed food and water ad libitum to adapt to the housing environment for one week, and then randomly divided into 6 groups: • 1) Control group (Normal diet, n=8); Administered intragastrically with ultrapure water; • 2) Model group (High fat diet, n=8); Administered intragastrically with ultrapure water; • 3) Leonurine crystal form A in low dose group (High fat diet, n=8); Administered intragastrically at a dose of 4 mg/kg/day; • 4) Leonurine crystal form A in middle dose group (High fat diet, n=8); Administered intragastrically at a dose of 8 mg/kg/day; • 5) Leonurine crystal form A in high dose group (High fat diet, n=8); […] Administered intragastrically at a dose of 2.5 mg/kg/day; Rabbits were weighed before administered drugs every week, where the dosage of the drug for rabbits is calculate according to the weight; and housed in an air-conditioned room under (24±1° C. room temperature and 55±5% air humidity) and allowed enough food and water ad libitum. After 12 weeks of administration, the rabbits were fasted for 12 h, and blood (2 ml) was drawn from the marginal ear vein for hematology analysis. Hematology analysis: blood samples were let for standing for 2 h and centrifuged (3000 rpm, 10 min, 4° C.) to obtain serum. The serum samples were tested according to the protocols recommended by Nanjing Jiancheng Bioengineering Institute. The total cholesterol (TC), triacylglycerol (TG), low-density cholesterol (LDL-C) and […] (HDL-C) levels in the serum samples were assessed using automatic microplate reader and automatic biochemical analyzer. Statistical analysis: GraphPad Prism 5 software was used to analyze and draw figure. Results were expressed as the mean±standard (mean±SD), and statistical analysis was performed by one-way analysis of variance (ANOVA) or student's t test. A difference with P<0.05 was considered statistically significant. Statistical significance was set at *P<0.05, **P<0.01, ***P<0.001 versus the model group.

[1] = Hygroscopicity, dynamic vapor sorption (DVS), 0-95% RH; type: physicochemical; conditions: for change of crystal form / hygroscopicity (in words): range of 0-95% relative humidity
Description: Dynamic vapor sorption (DVS) method, instrument model: SMS DVS Intrinsic, 0˜95% RH, temperature: 25° C.; FTIR method, instrument model: Nicolet 6700, sectral range: 4000˜400 cm^−1, resolution ratio: 4 cm^−1, scanning times: 32, the infrared spectra of the samples were determined by KBr pressed-disk technique method, temperature: 25° C.;
In this invention, it is named as leonurine crystal form A, which is monohydrate crystal form, square block crystal (as shown in FIG. 13), no crystal transformation before melting, dehydrates at 120˜150° C. and transform into anhydrous crystal form B, and decomposes at about 250° C. […] Under the condition of, in the suspension experiment at 25° C., in methanol, ethanol, isopropanol, acetone, acetonitrile, tetrahydrofuran, nitromethane, ethyl acetate, isopropyl acetate, isoamyl alcohol, methyl tert-butyl ether, toluene, methyl isobutyl ketone, n-hexane, n-heptane, ether, dichloromethane, chloroform, petroleum ether, water and other solvents; and under the condition of, in the suspension experiment at 50° C., in methanol, ethanol, acetone, methyl ethyl ketone, isopropyl acetate, methyl tert-butyl ether, toluene, n-hexane, n-heptane, diethyl ether, chloroform, petroleum ether, water and other solvents; and under most solvent conditions in suspension and volatilization of mixed solvents at 25° C. and 50° C., form A can be obtained. […] In a range of 0˜95% RH, the dehydration and water absorption behavior of the crystal form is very weak.

[2] = Accelerated stability test of leonurine crystal forms; type: physicochemical; conditions: 40° C.; for Crystal stability: 70% RH, 10 days
Source text: In the invention, the dominant medicinal crystal form was also screened by the accelerated stability experimental method, and observed the transformation among the various crystal forms.

[3] = relative humidity 60%-80%, 10-day stability test

In the case of CC(C)c1c(C(=O)Nc2ccccc2)c(-c2ccccc2)c(-c2ccc(F)cc2)n1CC[C@@H](O)C[C@@H](O)CC(=O)O [Atorvastatin, reference compound], the “serum total cholesterol (TC)” value (ApoE knockout mice) is reported as “reduced”, the “serum triacylglycerol (TG)” value (ApoE knockout mice) is reported as “reduced” and the “serum total cholesterol (TC)” value (New Zealand white rabbit) is reported as “no significant difference”. The “serum triacylglycerol (TG)” value (New Zealand white rabbit) was “reduced”.

With COc1cc(C(=O)OCCCCNC(=N)N)cc(OC)c1O [crystal form B, 4-guanidino-1-butyl 4-hydroxy-3,5-dimethoxybenzoate] the “hygroscopicity, water absorption” value ([1]; 60% RH) was 60% RH, water absorption 0.14%, the “hygroscopicity, water absorption” value ([1]; 80% RH) was 80% RH, water absorption 0.30% and the “change of crystal form” value [1] was “changed into crystal form A”. For the same compound, the “hygroscopicity (in words)” value [1] was “slightly hygroscopicity”, the Crystal stability [2] was “transformed into crystal form A” and the Crystal stability ([2]; listed as B) was “form into A”. For the same compound, the crystal transformation behavior [2, 3] was “appeared crystal transformation”.

For COc1cc(C(=O)OCCCCNC(=N)N)cc(OC)c1O [crystal form C, 4-guanidino-1-butyl 4-hydroxy-3,5-dimethoxybenzoate], the “hygroscopicity, water absorption” value ([1]; 60% RH) was 60% RH, water absorption 0.56%, the “hygroscopicity, water absorption” value ([1]; 80% RH) was 80% RH, water absorption 1.05% and the “change of crystal form” value [1] was “changed into crystal form A”. The Crystal stability [2] was “transformed into crystal form A”, the Crystal stability ([2]; listed as C) was “form into A” and the crystal transformation behavior [2, 3] was “appeared crystal transformation”.

With COc1cc(C(=O)OCCCCNC(=N)N)cc(OC)c1O [crystal form D, 4-guanidino-1-butyl 4-hydroxy-3,5-dimethoxybenzoate] the “hygroscopicity, water absorption” value ([1]; 60% RH) was 60% RH, water absorption 1.63%, the “hygroscopicity, water absorption” value ([1]; 80% RH) was 80% RH, water absorption 0.98% and the “change of crystal form” value [1] was “changed into crystal form A”. For the same compound, the Crystal stability [2] was “transformed into crystal form A”, the Crystal stability ([2]; listed as D) was “form into A” and the crystal transformation behavior [2, 3] was “appeared crystal transformation”.

With COc1cc(C(=O)OCCCCNC(=N)N)cc(OC)c1O [crystal form E, 4-guanidino-1-butyl 4-hydroxy-3,5-dimethoxybenzoate] the “hygroscopicity, water absorption” value ([1]; 60% RH) was 60% RH, water absorption 0.07%, the “hygroscopicity, water absorption” value ([1]; 80% RH) was 80% RH, water absorption 0.12% and the “change of crystal form” value [1] was “didn't change”. For the same compound, the “hygroscopicity (in words)” value [1] was “slight hygroscopicity”, the Crystal stability [2] was “remain unchanged” and the Crystal stability ([2]; listed as E) was “stable”. For the same compound, the crystal transformation behavior [2, 3] was “did not appear crystal transformation”, the “hygroscopicity (in words)” value [2, 3] was “strong” and the “hygroscopicity relative to crystal form A” value [2, 3] was “about ten times”.

For COc1cc(C(=O)OCCCCNC(=N)N)cc(OC)c1O [crystal form F, 4-guanidino-1-butyl 4-hydroxy-3,5-dimethoxybenzoate], the “hygroscopicity, water absorption” value ([1]; 60% RH) was 60% RH, water absorption 0.14%, the “hygroscopicity, water absorption” value ([1]; 80% RH) was 80% RH, water absorption 0.30% and the “change of crystal form” value [1] was “changes into crystal form A”. The “hygroscopicity (in words)” value [1] was “slightly hygroscopicity”, the Crystal stability ([2]; listed as F) was “form into A” and the Crystal stability ([2]; listed as form F) was “transformed into crystal form A”. The crystal transformation behavior [2, 3] was “appeared crystal transformation”.
